Assay results: patent publication US8975417B2, “Pyrazolopyrrolidine derivatives and their use in the treatment of disease” (Novartis AG, priority 2013, dated 2015)

Tests used:
[1] = target: nuclear BRD4-NUT foci in HCC2494 NUT midline carcinoma cells (Homo sapiens (Human), UniProt O60885+Q86Y26); experiment: Nut-foci formation assay; assay type: cell-based; settings: 24 hours, read-out: HCS Brd4-NUT IC50
In short: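 Read-out is number and intensity of nuclear NUT foci by immunofluorescence imaging, relative to 0.1% DMSO set as 100. Compounds were tested as 3-fold series starting at 10 μM on HCC2494 NUT midline carcinoma cells for 24 h. Four-parameter fitting gave IC50.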

K-562 cells = experiment: Cell growth inhibition assay (CellTiter-Glo), K-562; assay type: cell-based, human; settings: Homo sapiens, K562, read-out: K-562 TGI
In short: (§1)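 Luminescent ATP quantification served as the viability read-out following incubation at 37° C. under 5% CO2. A day-0 reference plate allowed scaling from −100% (medium) to 100% (0.1% DMSO vehicle), with IC50 and TGI fitted by a four-parameter model.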

MV-4-11 cells = experiment: Cell growth inhibition assay (CellTiter-Glo), MV-4-11; assay type: cell-based; settings: Homo sapiens, MV4-11, read-out: MV-4-11 TGI
In short: as §1

[2] = target: His-CREBBP (1081-1197) bromodomain (Homo sapiens (Human), UniProt Q92793); experiment: AlphaScreen in-vitro binding assay for CREBBP; settings: biochemical
Chain of His-CREBBP (1081-1197) bromodomain (Q92793 1081-1197): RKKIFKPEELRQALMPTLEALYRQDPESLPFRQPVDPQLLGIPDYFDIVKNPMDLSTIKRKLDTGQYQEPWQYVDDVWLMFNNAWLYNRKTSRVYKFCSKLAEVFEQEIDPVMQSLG
In short: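 Ni-chelate acceptor and streptavidin donor beads (45 µg/mL each, in 50 mM HEPES pH 7.5, 150 mM NaCl, 0.02% BSA) were then added for 60 min at room temperature. IC50 came from 8-point non-linear regression.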

IC50 [1] [nM]	IC50 [2] [µM]	Structure (SMILES)	IC (total growth inhibition) (K-562 cells) [µM]	IC (total growth inhibition) (MV-4-11 cells) [µM]
554	> 37	Cc1nn(C2CNC2)c2c1C(c1ccc(Cl)cc1)N(c1cc(C)c3nnc(C)n3c1)C2=O (stereo not drawn) [Example 151, 1-(azetidin-3-yl)-4-(4-chlorophenyl)-5-(3,8-dimethyl-[1,2,4]triazolo[4,3-a]pyridin-6-yl)-3-methyl-4,5-dihydropyrrolo[3,4-c]pyrazol-6(1H)-one]	> 10	0.368
1350	3.1	Cc1cc(N2C(=O)c3nn(C4CNC4)c(C)c3C2c2ccc(Cl)cc2)cn2c(C)nnc12 (stereo not drawn) [Example 152, 2-(azetidin-3-yl)-4-(4-chlorophenyl)-5-(3,8-dimethyl-[1,2,4]triazolo[4,3-a]pyridin-6-yl)-3-methyl-4,5-dihydropyrrolo[3,4-c]pyrazol-6(2H)-one]	> 10	0.8
150	12	CC(=O)N1CC(n2nc(C)c3c2C(=O)N(c2cc(C)c(=O)n(C)c2)C3c2ccc(Cl)cc2)C1 (stereo not drawn) [Example 153, 1-(1-acetylazetidin-3-yl)-4-(4-chlorophenyl)-5-(1,5-dimethyl-6-oxo-1,6-dihydropyridin-3-yl)-3-methyl-4,5-dihydropyrrolo[3,4-c]pyrazol-6(1H)-one]	> 10	0.161
208	> 37	CC(=O)N1CC(n2nc(C)c3c2C(=O)N(c2cc(C)c4nnc(C)n4c2)C3c2ccc(Cl)cc2)C1 (stereo not drawn) [Example 154, 1-(1-acetylazetidin-3-yl)-4-(4-chlorophenyl)-5-(3,8-dimethyl-[1,2,4]triazolo[4,3-a]pyridin-6-yl)-3-methyl-4,5-dihydropyrrolo[3,4-c]pyrazol-6(1H)-one]	> 10	0.112
106	11	CCOC(=O)N1CC(n2nc(C)c3c2C(=O)N(c2cc(C)c(=O)n(C)c2)C3c2ccc(Cl)cc2)C1 (stereo not drawn) [Example 155, Ethyl 3-(4-(4-chlorophenyl)-5-(1,5-dimethyl-6-oxo-1,6-dihydropyridin-3-yl)-3-methyl-6-oxo-5,6-dihydropyrrolo[3,4-c]pyrazol-1(4H)-yl)azetidine-1-carboxylate]	> 10	0.117
43.3	> 37	CCOC(=O)N1CC(n2nc(C)c3c2C(=O)N(c2cc(C)c4nnc(C)n4c2)C3c2ccc(Cl)cc2)C1 (stereo not drawn) [Example 156, Ethyl 3-(4-(4-chlorophenyl)-5-(3,8-dimethyl-[1,2,4]triazolo[4,3-a]pyridin-6-yl)-3-methyl-6-oxo-5,6-dihydropyrrolo[3,4-c]pyrazol-1(4H)-yl)azetidine-1-carboxylate]	> 10	0.058
99.7	> 37	Cc1nn(C2CN(C)C2)c2c1C(c1ccc(Cl)cc1)N(c1cc(C)c3nnc(C)n3c1)C2=O (stereo not drawn) [Example 157, 4-(4-chlorophenyl)-5-(3,8-dimethyl-[1,2,4]triazolo[4,3-a]pyridin-6-yl)-3-methyl-1-(1-methylazetidin-3-yl)-4,5-dihydropyrrolo[3,4-c]pyrazol-6(1H)-one]	> 10	0.0833
103	3.3	Cc1cc(N2C(=O)c3nn(C4CN(C)C4)c(C)c3C2c2ccc(Cl)cc2)cn2c(C)nnc12 (stereo not drawn) [Example 158, 4-(4-chlorophenyl)-5-(3,8-dimethyl-[1,2,4]triazolo[4,3-a]pyridin-6-yl)-3-methyl-2-(1-methylazetidin-3-yl)-4,5-dihydropyrrolo[3,4-c]pyrazol-6(2H)-one]	> 10	0.045
33.3	12	Cc1nn(C[C@H](O)C(F)(F)F)c2c1[C@@H](c1ccc(Cl)cc1)N(c1cc(C)c3nnc(C)n3c1)C2=O [Example 167, (R)-4-(4-chlorophenyl)-5-(3,8-dimethyl-[1,2,4]triazolo[4,3-a]pyridin-6-yl)-3-methyl-1-((S)-3,3,3-trifluoro-2-hydroxypropyl)-4,5-dihydropyrrolo[3,4-c]pyrazol-6(1H)-one]	> 10	0.0433
